# Patent publication US20020076747A1, “Method for expanding embryonic stem cells in serum-free culture” (priority 1997, published 2002)
# Tests used:
# D3 ES cells = experiment: Media formulation evaluation assay: ES cell colony morphology, alkaline phosphatase staining and plating efficiency; format: cell-based, mouse; conditions: for general plating efficiency and number of undifferentiated ES colonies with or without the component: component added to serum-free formulation (15% in DMEM): 15 μg/L ferric citrate, 0.3 μg/L glycl-histidyl-lysine, 300 μg/L ethanolamine
# Procedure: ES D3 ES cells were used (Doetschman, T. C. et al., J. Embryol. Exp. Morph. 87:27-45 (1985)). Unless otherwise specified, D3 cells at passage 15 were used. Trypsin-EDTA (0.25%, 1 mM) was used to remove cells from plates after rinsing the cell layer with phosphate buffered saline (PBS). Cells were cultured in a humidified 37° C., 10% CO2 incubator.
# The protocol for a media formulation evaluation assay was as follows. The source of ES cells for the experiments was a sub-confluent dish of ES cells maintained on a feeder layer in ES cell medium with LIF. Feeder layers for experimental conditions were established in 6 well plates (NUNC) by seeding 3-5×10^4 feeder cell/cm^2 and allowing the cells to attach. ES cells were trypsinized to form a cell suspension. Trypsin activity was quenched with serum-supplemented medium, and cells were pelleted by centrifugation at 500× g. The medium was removed and the ES cells were resuspended in DMEM containing 2 mM L-glutamine, 50 U/mL penicillin, 50 ug/mL streptomycin, 100 uM NEAA, and 100 uM 2-mercaptoethanol (final concentrations).
# ES cells were then mixed with respective test media (described infra) at a concentration of […]. Feeder cell media was then removed from the feeder plates, and the feeder layers were washed once with 2 mL of DMEM (that was not supplemented with serum or any other additives). 2.5 mL of test medium and ES cells (225/well) were added to each well of feeder cells. Test conditions were assayed in triplicate (3 wells/test condition). The cells were incubated for 7 days while observations were made regarding ES cell growth parameters. Incubation conditions were 37° C., 10% CO2 in air, and humidified atmosphere.
# At the end of the 7 day culture period, observations were made and then ES cells were harvested, fixed and assayed for the presence of alkaline phosphatase by using a histochemical assay (Sigma diagnostic kit 86-R, Sigma, St. Louis, Mo.). Cells were fixed and assayed according to the manufacturer's directions. In this assay, cells which express alkaline phosphatase stain dark pink or red. ES cell colonies were rated in terms of morphology and strength of alkaline phosphatase staining according to the following parameters. Class I colonies are round, stain dark pink, and have the desired, undifferentiated colony morphology characterized by a well-defined colony border. Class II colonies are those that have begun to differentiate, are stained at least 60% pink, and have a more flattened appearance, with a poorly defined border. […] Plating efficiency was determined by dividing the total number of colonies obtained by the input number of ES cells (225/well).
# feeder cells = experiment: Feeder layer morphology in ES cell cultures; format: cell-based; conditions: AAP 50 mg/L, independent of LIF
# Source text: One aspect of the supplement that was sub-optimal related to the morphology of the feeder layer in ES cell cultures maintained in the same culture vessel for more than three days. Generally, ES cells are passaged every two to three days. Typically, during selection of antibiotic-resistant ES cells, cultures are maintained without passaging for ten or more days. […] The detached cells were seen floating in the growth medium.
# In order to improve the formulation, the addition of L-ascorbic acid-2-phosphate to the formulation was evaluated. In an evaluation assay (as in Example 1), the medium was supplemented with the serum-free supplement (to a fmal concentration of 15%), either with or without L-ascorbic acid-2-phosphate (50 mg/L final concentration), and 10 ng/mL LIF (final concentration).
# The numbers within parentheses indicate what percentage of total ES cell colonies that the colonies with the indicated degree of differentiation represented. In Table 4, “good” feeder cell morphology reflects a more fibroblast-like character and smooth borders, rather than a spindly, ragged-looking character.
compound,measurement,setting,value
O=C1O[C@H]([C@@H](O)CO)C(O)=C1OP(=O)(O)O [L-ascorbic acid-2-phosphate],effect on plating efficiency,D3 ES cells; factor alone,little effect
same,colony size,D3 ES cells; in the absence of LIF,much improved
same,percent of class I colonies,D3 ES cells; in the absence of LIF,increased
same,percent of class III colonies,D3 ES cells; in the absence of LIF,decreased
same,average colony size (an indication of growth rate),D3 ES cells; with LIF in the culture media,increase
same,effect on the morphology class of colonies obtained,D3 ES cells; with LIF in the culture media,virtually no effect
same,appearance of the feeder layer,feeder cells,improved
NCCO [ethanolamine],general plating efficiency and number of undifferentiated ES colonies with or without the component,D3 ES cells,no different
glycl-histidyl-lysine,general plating efficiency and number of undifferentiated ES colonies with or without the component,D3 ES cells,no different
ferric citrate,general plating efficiency and number of undifferentiated ES colonies with or without the component,D3 ES cells,no different
